# In publication PMC10501326, “A Phase I Study of the Pan-Notch Inhibitor CB-103 for Patients with Advanced Adenoid Cystic Carcinoma and Other Tumors” (Cancer Research Communications, 2023):
# Values joined by “and” are separate entries in the source; they are usually repeats but may differ in a detail not shown here. Equal values may be shown once.
# System: advanced solid tumors, adenoid cystic carcinoma (ACC)
# Experiment: Antitumor efficacy and survival (RECIST v1.1 response, CBR, PFS, OS)
# Assay type: in vivo, human
# Text: The study enrolled adults with histologically confirmed, locally advanced and/or metastatic solid tumors who had progressed on at least one line of prior systemic therapy (except for ACC) and relapsed/refractory T-ALL/LBL for whom no standard therapy was available. In dose escalation, participants with solid tumors with known or frequent Notch pathway–activating mutations were eligible (breast cancer, gastrointestinal tumors, hepatocellular carcinoma, osteosarcoma, malignant glomus tumor, and ACC), while the confirmatory cohort planned to enroll participants with selected tumor types (including T-ALL/LBL) and confirmed Notch pathway activation. Key eligibility criteria included patients ≥18 years of age with evaluable disease, Eastern Cooperative Oncology Group (ECOG) performance status 0–1, able to swallow capsules, and adequate organ function. Participants were excluded if they had clinically significant cardiac disease or thromboembolic events within the preceding 6 months, and drugs prolonging the QTc were avoided. A complete list of eligibility criteria is outlined in the Supplementary Materials and Methods.
# Safety was assessed via monitoring of DLTs during the first treatment cycle, and of AEs, physical exam, and clinical lab results (hematology, coagulation, blood chemistry, urinalysis, and cardiac markers) throughout the study (Supplementary Table S1). 12-lead electrocardiograms and Holter safety monitoring with periodic cardiac imaging was employed. Efficacy assessments used RECIST v1.1 applied to CT/MRI scans performed at screening and every 8 weeks; or evaluated complete remission with complete hematologic recovery by National Comprehensive Cancer Network guideline criteria for T-ALL/T-LBL. Adherence to study drug administration was evaluated using both patient diaries and capsule counts.
# The primary endpoint for dose escalation was the number of patients experiencing DLT during the first 28-day cycle of CB-103 and for the confirmatory phase, the incidence rate, severity, and relationship of AEs to CB-103. Secondary endpoints included assessment of clinical benefit rate [CBR; defined as achieving complete and/or partial response and/or stable disease (SD) at prespecified benchmarks], duration of response, progression-free survival (PFS) and overall survival (OS), and plasma pharmacokinetics.
# The objective of the BLRM design ([10]) was to determine the MTD defined as the highest dose with less than 25% risk of the true DLT rate being above 33%. The MTD was considered reached if one of the following criteria was fulfilled: (i) if the posterior probability of the true DLT rate in the target interval (16%–33%) of the MTD was >50%, and (ii) at least 6 patients were treated at the MTD. Under this model, and accounting for dropouts and some additional patients enrolled to each cohort, approximately 55 patients were anticipated to enroll in dose escalation and approximately 45 patients in the confirmatory phase. Data were reported using 95% confidence intervals (CI) and survival endpoints (PFS, OS) are reported from the time of first treatment to the first of progression or death summarized by Kaplan–Meier estimates. All statistical analyses were analyzed using SAS v9.4 software.
# [1] = ACC confirmatory cohort (n = 12), 500 mg once daily
# [2] = All solid tumor patients (n = 76)
compound,measurement,setting,value
CC(C)(C)c1ccc(Oc2ccc(N)cn2)cc1 [CB-103],3-month PFS (95% CI),[1],10.9 (0.6–38.0)
same,Best overall response: Complete response,[1],"0 n, %"
same,Best overall response: Partial response,[1],"0 n, %"
same,Best overall response: Progressive disease,[1],"7 (58) n, %"
same,Best overall response: Stable disease,[1],"3 (25) n, %"
same,Best overall response: Unevaluable,[1],"2 (17) n, %"
same,"Clinical benefit rate, 3 months (95% CI)",[1],25.0 (5.5–57.2) — — %
same,Median OS (95% CI),[1],5.4 (1.3–5.4) months
same,Median PFS (95% CI),[1],1.4 (0.8–2.3) months
same,Overall survival: No. of deaths,[1],"4 (33) n, %"
same,Progression-free survival: No. of events,[1],"10 (83) n, %"
same,3-month PFS (95% CI),All patients with ACC (n = 40),46.8 (30.4–61.7)
same,6-month OS (95% CI),All patients with ACC (n = 40),72.4 (53.1–84.8) %
same,6-month PFS (95% CI),All patients with ACC (n = 40),18.6 (7.9–32.8) %
same,9-month PFS (95% CI),All patients with ACC (n = 40),6.2 (1.1–17.8)
same,12-month OS (95% CI),All patients with ACC (n = 40),57.3 (37.5–73.0) %
same,12-month PFS (95% CI),All patients with ACC (n = 40),6.2 (1.1–17.8)
same,Best overall response: Complete response,All patients with ACC (n = 40),"0 n, %"
same,Best overall response: Partial response,All patients with ACC (n = 40),"0 n, %"
same,Best overall response: Progressive disease,All patients with ACC (n = 40),"13 (33) n, %"
same,Best overall response: Stable disease,All patients with ACC (n = 40),"23 n, % and 23 (58%) n, % and 23 (58) n, %"
same,Best overall response: Unevaluable,All patients with ACC (n = 40),"4 (10) n, %"
same,"Clinical benefit rate, 3 months (95% CI)",All patients with ACC (n = 40),57.5 (40.9–73.0) %
same,"Clinical benefit rate, 6 months (95% CI)",All patients with ACC (n = 40),27.5 (14.6–43.9) %
same,"Clinical benefit rate, 9 months (95% CI)",All patients with ACC (n = 40),2.5 (0.1–13.2) %
same,Median OS (95% CI),All patients with ACC (n = 40),18.4 months
same,Median PFS (95% CI),All patients with ACC (n = 40),2.5 (1.5–3.7) months
same,Overall survival: No. of deaths,All patients with ACC (n = 40),"15 (38) n, %"
same,Progression-free survival: No. of events,All patients with ACC (n = 40),"35 (88) n, %"
same,3-month PFS (95% CI),[2],38.7 (26.5–50.6)
same,6-month OS (95% CI),[2],68.4 (54.4–78.9) %
same,6-month PFS (95% CI),[2],15.5 (7.5–26.0) %
same,9-month PFS (95% CI),[2],5.8 (1.7–14.3)
same,12-month OS (95% CI),[2],41.6 (28.0–54.7) %
same,12-month PFS (95% CI),[2],3.9 (0.7–11.6)
same,Best overall response: Complete response,[2],"0 n, %"
same,Best overall response: Partial response,[2],"0 n, %"
same,Best overall response: Progressive disease,[2],"29 (38) n, %"
same,Best overall response: Stable disease,[2],"37 (49%) n, % and 37 (49) n, %"
same,Best overall response: Unevaluable,[2],"10 (13) n, %"
same,"Clinical benefit rate, 3 months (95% CI)",[2],48.7 (37.0–60.4) %
same,"Clinical benefit rate, 6 months (95% CI)",[2],15.8 (8.4–26.0) %
same,"Clinical benefit rate, 9 months (95% CI)",[2],1.3 (0.0–7.1) %
same,Median OS (95% CI),[2],9.2 (6.3–18.4) months
same,Median PFS (95% CI),[2],1.9 (1.4–3.2) months
same,Overall survival: No. of deaths,[2],"33 (43%) n, % and 33 (43) n, %"
same,Progression-free survival: No. of events,[2],"59 (78) n, %"
same,Objective responses,all 76 solid tumor patients,no objective responses
same,Duration of stable disease on study,"case: locoregionally recurrent ACC, NOTCH-activating mutation present",3 months
same,Tumor regression in right parapharyngeal mass,"case: locoregionally recurrent ACC, NOTCH-activating mutation present (30 to 25 mm)",−17%
same,Tumor regression in dominant liver lesion,case: patient with metastatic ACC with rapid progression prior to study entry (26.1–19.4 mm),−25.7%
same,Duration of stable disease on study,"case: patient with metastatic ACC, dominant liver lesion",8 months
same,Median OS,heavily pretreated ACC cohort,under 2 years
same,Duration of SD,"one patient, NOTCH1-activated metastatic ACC with tumor BCL2 overexpression, 250 mg twice daily",3 months
same,ACC patients exhibiting SD,patients with ACC (n = 40),58%
